Laboratory results: patent US20040110732A1, “Pharmaceutical composition for transdermal or transmucosal administration comprising at least one progestin and/or at least one oestrogen, process for preparing it and uses thereof” (BESINS INTERNATIONAL BELGIQUE, priority 2002, published 2004)

Experiment: In vitro percutaneous absorption of 3H estradiol in Franz-type diffusion cells
Description: The in vitro percutaneous absorption was studied quantitatively on biopsies of dermatomed human ventral skin, placed in a 1.77 cm^2 Franz static diffusion cell, which allows the dermis to be placed in contact with a survival liquid into which the substance absorbed through the skin will be dosed. The survival liquid consists of a solution of 9 g/L sodium chloride supplemented with 15 g/L of serum albumin. The cells are placed under ambient atmosphere and thermostatically maintained at 37° C. 10 μl of preparation are applied to the entire surface of the epidermis circumscribed by the glass cylinder. During the experiment, samples of the survival liquid are taken at times 2 h, 4 h, 6 h, 8 h and 24 h. For each time, the survival liquid taken is replaced with fresh liquid.

cumulative absorption at 24 hours of estradiol (control of the ethylglycolic acid test: aqueous-alcoholic estradiol 0.06% solution without hydroxy acid): 5.26%±1.26%
percutaneous absorption of estradiol (control of the glycolic acid test: aqueous-alcoholic estradiol 0.06% solution without hydroxy acid): 6.96%±2.95%
percutaneous absorption of estradiol at 24 hours (control of the lactic acid test: aqueous-alcoholic solution of estradiol 0.06%, 50% absolute alcohol, no hydroxy acid): 5.50%±1.76%
cumulative absorption at 24 hours of estradiol (ethylglycolic acid at 5%, estradiol 0.06%): 8.90%±1.29%
percutaneous absorption of estradiol (glycolic acid at 5% in aqueous-alcoholic solution containing 40% absolute ethanol, estradiol 0.06%): 17.73%±2.96%
flows between 8 and 24 hours (lactic acid at 5% in 50% ethanol solution, compared with the control): significantly increasing
percutaneous absorption of estradiol at 24 hours (lactic acid at 5% in aqueous-alcoholic solution containing 50% ethanol, estradiol 0.06%): 13.80%±6.78%
SMILES: C[C@]12CC[C@@H]3c4ccc(O)cc4CC[C@H]3[C@@H]1CC[C@@H]2O [estradiol, 17β-estradiol]
